The source of these data is patent US4259235A, “Tricyclic nitrogenous compounds having string plant growth regulating properties” (BASF Aktiengesellschaft, priority 1977, dated 1981).

The test system of test [1] is spring barley. As to the kind of experiment: Growth height of spring barley, leaf treatment, Example 10. Type of test: in vivo, spring barley ("Union" variety). The protocol: Spring wheat ("Opal" variety) and spring barley ("Union" variety) were grown under greenhouse conditions in plastic dishes 11.5 cm in diameter, in a peat substrate provided with sufficient nutrients. For the soil (preemergence) treatment, the active ingredients were poured, at two application rates, as aqueous formulations onto the surface of the substrate after sowing.
Leaf treatment was effected by spraying the plants at a growth height of 10 cm with aqueous formulations of the active ingredients at two application rates.
The plant height was measured at the end of the experiment. The figures obtained show the shortening effect of the active ingredients under investigation. The prior art compound β-chloroethylphosphonic acid (Ethephon, German Printed Application DAS No. 1,667,968) was used for comparison purposes.

The next test relates to spring wheat. As to the kind of experiment: Growth height of spring wheat, leaf treatment, Example 11. Type of test: in vivo, spring wheat ("Opal" variety). The procedure:
(§1) The test plants--spring wheat ("Opal" variety), spring barley ("Union" variety) and spring rye ("Petkuser" variety)--were grown under greenhouse conditions in plastic dishes 11.5 cm in diameter, in a peat substrate provided with sufficient nutrients.
(§2) Leaf treatment was effected by spraying the plants at a growth height of 11 cm with aqueous formulations of the active ingredients, at three application rates.
(§3) The shortening effect caused by the compounds was shown by measurements of the height of the plants at the end of the experiment.
(§4) The prior art compound N,N,N-trimethyl-N-β-chloroethylammonium chloride (CCC, German Printed Application DAS No. 1,294,734) was used for comparison purposes.

For test [2], the system named is spring barley. As to the kind of experiment: Growth height of spring barley, soil treatment, Example 11. In kind it is in vivo, spring barley ("Union" variety). The procedure:
as §1
(§5) The soil (preemergence) treatment was effected after sowing by pouring aqueous formulations of the active ingredients, at four application rates, onto the surface of the substrate.
as §3, §4

The test system of test [3] is spring barley. As to the kind of experiment: Growth height of spring barley, leaf treatment, Example 11. Type of test: in vivo, spring barley ("Union" variety). The protocol:
as §1, §2, §3, §4

The subject of test [4] is spring rye. As to the kind of experiment: Growth height of spring rye, soil treatment, Example 11. In kind it is in vivo, spring rye ("Petkuser" variety). The protocol: as §1, §5, §3, §4
In test [5] the test system is spring rye. Kind of test: Growth height of spring rye, leaf treatment, Example 11. Type of test: in vivo, spring rye ("Petkuser" variety). The procedure: as §1, §2, §3, §4

`FC(F)(F)c1cccc(NC2C(I)C3CC2C2N=NC32)c1` (centres unmarked) [drawing 415]: in the test with spring barley [1] (1.5 kg/ha), the Plant height is recorded as 25.0 cm and the “Plant height, % of untreated control” value worked out at 89.3%. In the test with spring barley [1] (6.0 kg/ha), the Plant height is given as 24.0 cm and the “Plant height, % of untreated control” value is 85.7%.

Take `c1ccc(C2=NNC3C4CC(C5N=NC45)C23)cc1` (centres unmarked) [drawing 416]: the Plant height in the test on spring wheat (0.75 kg/ha) came out at 26.5 cm; in the test on spring wheat (1.50 kg/ha), 25.5 cm; in the test on spring wheat (3.00 kg/ha) it was 24.0 cm. The “Plant height, % of untreated control” value with spring wheat (0.75 kg/ha) is listed as 86.0%; with spring wheat (1.50 kg/ha), 82.8%; in the test with spring wheat (3.00 kg/ha) it was 77.9%.

On to `c1ccc(C2=NNC3C4CC(C5N=NC45)C23)cc1` (centres unmarked) [drawing 417], for which the Plant height in the test on spring barley [2] (0.75 kg/ha) is recorded as 32.0 cm; in the test with spring barley [2] (1.50 kg/ha), 28.0 cm; with spring barley [2] (3.00 kg/ha), 27.0 cm; in the test on spring barley [2] (6.00 kg/ha), 23.0 cm. The “Plant height, % of untreated control” value is on record as 97.6% with spring barley [2] (0.75 kg/ha), 85.4% with spring barley [2] (1.50 kg/ha), 82.3% with spring barley [2] (3.00 kg/ha) and 70.1% in the test on spring barley [2] (6.00 kg/ha).

With `c1ccc(C2N=NC3C4CC(C5N=NC45)C23)cc1` (centres unmarked) [drawing 418], the Plant height with spring barley [3] (0.75 kg/ha) was 23.5 cm; in the test on spring barley [3] (1.50 kg/ha), 23.0 cm; with spring barley [3] (3.00 kg/ha) it was 21.5 cm. For the same compound, the figures for the “Plant height, % of untreated control” value in the test on spring barley [3] (0.75 kg/ha), with spring barley [3] (1.50 kg/ha) and with spring barley [3] (3.00 kg/ha) were 84.5%, 82.7% and 77.3%, respectively.

`Clc1ccc(NC2C(Cl)C3CC2C2N=NC32)cc1` (centres unmarked) [drawing 419]: the Plant height in the test on spring barley [3] (0.75 kg/ha) was found to be 26.0 cm; with spring barley [3] (1.50 kg/ha), 25.5 cm; with spring barley [3] (3.00 kg/ha) it was 23.5 cm. Also, the “Plant height, % of untreated control” value in the test with spring barley [3] (0.75 kg/ha) is given as 93.5%; with spring barley [3] (1.50 kg/ha) it was 91.7%; in the test on spring barley [3] (3.00 kg/ha), 84.5%.

Take `Clc1ccc(NC2C(Cl)C3CC2C2N=NC32)cc1` (centres unmarked) [drawing 421]: the Plant height with spring rye [4] (0.75 kg/ha) was found to be 28.0 cm; with spring rye [4] (1.50 kg/ha) it was 27.0 cm; in the test with spring rye [4] (3.00 kg/ha), 25.0 cm; with spring rye [4] (6.00 kg/ha), 23.0 cm. The “Plant height, % of untreated control” value in the test with spring rye [4] (0.75 kg/ha) came out at 86.7%; with spring rye [4] (1.50 kg/ha) it was 83.5%; in the test with spring rye [4] (3.00 kg/ha), 77.4%; with spring rye [4] (6.00 kg/ha), 71.2%.

On to `c1ccc(C2N=NC3C4CC(C5N=NC45)C23)cc1` (centres unmarked) [drawing 422], for which the Plant height in the test with spring rye [5] (0.75 kg/ha) worked out at 23.0 cm; in the test on spring rye [5] (1.50 kg/ha) it was 20.5 cm; in the test on spring rye [5] (3.00 kg/ha), 20.5 cm. Further, the “Plant height, % of untreated control” value is 80.7% in the test with spring rye [5] (0.75 kg/ha), 71.9% in the test on spring rye [5] (1.50 kg/ha) and 71.9% with spring rye [5] (3.00 kg/ha).

Consider `Clc1ccc(NC2C(Cl)C3CC2C2N=NC32)cc1` (centres unmarked) [drawing 423], for which the results for the Plant height with spring rye [5] (0.75 kg/ha), with spring rye [5] (1.50 kg/ha) and with spring rye [5] (3.00 kg/ha) were 25.5 cm, 24.5 cm and 24.5 cm, respectively. Moreover, the “Plant height, % of untreated control” value worked out at 89.5% in the test on spring rye [5] (0.75 kg/ha), 86.0% with spring rye [5] (1.50 kg/ha) and 86.0% in the test with spring rye [5] (3.00 kg/ha).
